Measurements: patent publication US11370774B2, “Substituted benzofuran, benzopyrrole, benzothiophene, and structurally related complement inhibitors” (BioCryst Pharmaceuticals, Inc., priority 2018, dated 2022)

target: Factor D (Homo sapiens (Human), UniProt P00746); assay: Factor D esterolytic assay (Z-Lys-SBzl substrate, DTNB, 405 nm); type: biochemical; settings: Z-Lys-SBzl 1.29 mM, pH 7.5, 10% DMSO, tested a minimum of three times, read-out: Measured Ki (IC50) Value for Compounds: IC50
Procedure, shortened: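 Thioester hydrolysis (Z-Lys-SBzl, 1.29 mM) by human Factor D ([…]) detected through DTNB color at 405 nm over 600 sec, minus 690 nm background. Buffer: 100 mM HEPES pH 7.5, 500 mM NaCl, 10% DMSO; optional room-temperature preincubation before substrate. IC50 derived from percent rate inhibition; at least three runs.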

Chain of Factor D (P00746 26-253): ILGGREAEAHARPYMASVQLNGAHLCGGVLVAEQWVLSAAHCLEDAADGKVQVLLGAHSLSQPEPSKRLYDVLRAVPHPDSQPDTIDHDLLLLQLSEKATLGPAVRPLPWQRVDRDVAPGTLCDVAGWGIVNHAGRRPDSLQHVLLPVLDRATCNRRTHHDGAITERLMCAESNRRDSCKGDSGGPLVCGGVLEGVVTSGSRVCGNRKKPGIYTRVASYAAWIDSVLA

Compound | IC50 [µM]
NCc1cccc(-c2cc(COc3ccccc3CC(=O)O)cc3c2ccn3CC2CC2)c1F [Compound 149b, 2-(2-((4-(3-(aminomethyl)-2-fluorophenyl)-1-(cyclopropylmethyl)-1H-indol-6-yl)methoxy)phenyl)acetic acid] | < 1
NCc1cccc(-c2cc(COc3c(CC(=O)O)ccc4occc34)cc3ccoc23)c1 [Compound 291g, 2-(4-((7-(3-(aminomethyl)phenyl)benzofuran-5-yl)methoxy)benzofuran-5-yl)acetic acid] | < 1
NCc1cc(-c2cc(COc3ccccc3CC(=O)O)cc3ccoc23)c2occc2c1 [Compound 335d, 2-(2-((5′-(aminomethyl)-[7,7′-bibenzofuran]-5-yl)methoxy)phenyl)acetic acid] | > 10
NCc1cccc(-c2cc(COc3ccccc3CC(=O)O)cc3cc(C(N)c4ccccc4)oc23)c1 (single isomer, unassigned; (+)) [Compound 460d, (+)-2-(2-((2-(amino(phenyl)methyl)-7-(3-(aminomethyl)phenyl)benzofuran-5-yl)methoxy)phenyl)acetic acid] | < 1
NCc1nccc(-c2cc(COc3cc(F)ccc3CC(=O)O)c(F)c3ccoc23)c1F [Compound 509d, 2-(2-((7-(2-(aminomethyl)-3-fluoropyridin-4-yl)-4-fluorobenzofuran-5-yl)methoxy)-4-fluorophenyl)acetic acid] | < 1
CC(C)n1ccc2c(-c3cccc(CN)c3)cc(COc3ccc(F)cc3CC(=O)O)cc21 [Compound 474c, 2-(2-((4-(3-(aminomethyl)phenyl)-1-isopropyl-1H-indol-6-yl)methoxy)-5-fluorophenyl)acetic acid] | < 1
NCc1cccc(-c2cc(COc3ccccc3CC(=O)O)cc3cc(CO)oc23)c1F [Compound 94c, 2-(2-((7-(3-(aminomethyl)-2-fluorophenyl)-2-(hydroxymethyl)benzofuran-5-yl)methoxy)phenyl)acetic acid] | < 1
NCc1cccc(-c2cc(COc3ccccc3CC(=O)O)cc3cc(COCc4ccccc4)oc23)c1 [Compound 284f, 2-(2-((7-(3-(aminomethyl)phenyl)-2-((benzyloxy)methyl)benzofuran-5-yl)methoxy)phenyl)acetic acid] | < 1
COc1ccc(CC(=O)O)c(OCc2cc(-c3ccnc(CN)c3F)c3ccn(C(C)C)c3c2)c1 [Compound 448c, 2-(2-((4-(2-(aminomethyl)-3-fluoropyridin-4-yl)-1-isopropyl-1H-indol-6-yl)methoxy)-4-methoxyphenyl)acetic acid] | < 1
CCCc1ccc(CC(=O)O)c(OCc2cc(-c3cccc(CN)c3)c3occc3c2)c1 [Compound 266g, 2-(2-((7-(3-(aminomethyl)phenyl)benzofuran-5-yl)methoxy)-4-propylphenyl)acetic acid] | < 1
NCc1cc(-c2cc(COc3ccccc3CC(=O)O)cc3ccsc23)ccn1 [Compound 310c, 2-(2-((7-(2-(aminomethyl)pyridin-4-yl)benzo[b]thiophen-5-yl)methoxy)phenyl)acetic acid] | < 1
NCc1cccc(-c2cc(COc3ccccc3CC(=O)O)cc3c(N)noc23)c1 [Compound 114j, 2-(2-((3-amino-7-(3-(aminomethyl)phenyl)benzo[d]isoxazol-5-yl)methoxy)phenyl)acetic acid] | < 1
CC(C)S(=O)(=O)n1ccc2c(-c3cccc(CN)c3)cc(COc3ccccc3CC(=O)O)cc21 [Compound 228e, 2-(2-((4-(3-(aminomethyl)phenyl)-1-(isopropylsulfonyl)-1H-indol-6-yl)methoxy)phenyl)acetic acid] | < 1
COc1cccc(CC(=O)O)c1OCc1cc(-c2cccc(CN)c2F)c2occc2c1 [Compound 508b, 2-(2-((7-(3-(aminomethyl)-2-fluorophenyl)benzofuran-5-yl)methoxy)-3-methoxyphenyl)acetic acid] | < 1
NCc1cccc(-c2cc(NC(=O)[C@@H]3CCCN3C(=O)NCc3cccc(Cl)c3F)cc3ccoc23)c1 [Compound 507f, (S)—N2-(7-(3-(aminomethyl)phenyl)benzofuran-5-yl)-N1-(3-chloro-2-fluorobenzyl)pyrrolidine-1,2-dicarboxamide] | 1 to 10
NCc1cccc(-c2cc(COc3ccccc3CC(=O)O)cc3c2ccn3C(F)(F)F)c1F [Compound 518b, 2-(2-((4-(3-(aminomethyl)-2-fluorophenyl)-1-(trifluoromethyl)-1H-indol-6-yl)methoxy)phenyl)acetic acid] | < 1
NCc1cccc(-c2cn3cccc3c(C(=O)Nc3ccccc3CC(=O)O)n2)c1 [Compound 93h, 2-(2-(3-(3-(aminomethyl)phenyl)pyrrolo[1,2-a]pyrazine-1-carboxamido)phenyl)acetic acid] | < 1
NCc1cccc(-c2cc(COc3ccccc3CC(=O)O)cc3[nH]ncc23)c1 [Compound 156b, 2-(2-((4-(3-(aminomethyl)phenyl)-1H-indazol-6-yl)methoxy)phenyl)acetic acid] | < 1

Compound | IC50 [µM]
NCc1cccc(-c2cc(C(=O)Nc3ccccc3CC(=O)O)cc3nn(CC4CC4)cc23)c1 [Compound 11b, 2-(2-(4-(3-(aminomethyl)phenyl)-2-(cyclopropylmethyl)-2H-indazole-6-carboxamido)phenyl)acetic acid] | < 1
NCc1cccc(-c2cc(COc3ccc(Br)cc3CC(=O)O)cc3ccoc23)c1 [Compound 208d, 2-(2-((7-(3-(aminomethyl)phenyl)benzofuran-5-yl)methoxy)-5-bromophenyl)acetic acid] | < 1
COc1c(C(=O)Nc2ccccc2CC(=O)O)cc(-c2ccnc(CN)c2F)c2occc12 [Compound 334d, 2-(2-(7-(2-(aminomethyl)-3-fluoropyridin-4-yl)-4-methoxybenzofuran-5-carboxamido)phenyl)acetic acid] | 1 to 10
NCc1cccc(-c2cc(COc3ccccc3C(NC(=O)C3CC3)C(=O)O)cc3ccoc23)c1 (stereo not drawn) [Compound 223e, 2-(2-((7-(3-(aminomethyl)phenyl)benzofuran-5-yl)methoxy)phenyl)-2-(cyclopropanecarboxamido)acetic acid] | < 1
N#Cc1ccc(CC(=O)O)c(OCc2cc(-c3ccnc(CN)c3)c3occc3c2)c1 [Compound 433c, 2-(2-((7-(2-(aminomethyl)pyridin-4-yl)benzofuran-5-yl)methoxy)-4-cyanophenyl)acetic acid] | < 1
COCc1cc2cc(COc3cc(C#N)ccc3CC(=O)O)cc(-c3cccc(CN)c3F)c2o1 [Compound 416d, 2-(2-((7-(3-(aminomethyl)-2-fluorophenyl)-2-(methoxymethyl)benzofuran-5-yl)methoxy)-4-cyanophenyl)acetic acid] | < 1
NCc1ccnc(-c2cc(COc3ccccc3CC(=O)O)cc3ccoc23)c1 [Compound 110c, 2-(2-((7-(4-(aminomethyl)pyridin-2-yl)benzofuran-5-yl)methoxy)phenyl)acetic acid] | < 1
NCc1cc(-c2cc(COc3ccccc3CC(=O)O)cc3sc(Cl)cc23)ccn1 [Compound 336c, 2-(2-((4-(2-(aminomethyl)pyridin-4-yl)-2-chlorobenzo[b]thiophen-6-yl)methoxy)phenyl)acetic acid] | < 1
NCc1cccc(-c2cc(COc3ccccc3CC(=O)O)cc3c2cnn3CC2CC2)c1 [Compound 126h, 2-(2-((4-(3-(aminomethyl)phenyl)-1-(cyclopropylmethyl)-1H-indazol-6-yl)methoxy)phenyl)acetic acid] | < 1
NCc1cccc(-c2cc(COc3ccccc3CC(=O)O)cc3c2ccn3C(F)(F)F)c1 [Compound 517d, 2-(2-((4-(3-(aminomethyl)phenyl)-1-(trifluoromethyl)-1H-indol-6-yl)methoxy)phenyl)acetic acid] | < 1
N#Cc1ccc(CC(=O)O)c(OCc2cc(-c3cccc(CN)c3)c3oc(CO)cc3c2)c1 [Compound 422e, 2-(2-((7-(3-(aminomethyl)phenyl)-2-(hydroxymethyl)benzofuran-5-yl)methoxy)-4-cyanophenyl)acetic acid] | < 1
NCc1cccc(-c2cc(COc3ccccc3CC(=O)O)cc3cc(C4CC4)oc23)c1F [Compound 88b, 2-(2-((7-(3-(aminomethyl)-2-fluorophenyl)-2-cyclopropylbenzofuran-5-yl)methoxy)phenyl)acetic acid] | < 1
Nc1nccc2ccc(-c3cc(COc4ccccc4CC(=O)O)cc4ccoc34)cc12 [Compound 87c, 2-(2-((7-(1-aminoisoquinolin-7-yl)benzofuran-5-yl)methoxy)phenyl)acetic acid] | > 10
NCc1cccc(-c2cc(COc3ccccc3CC(=O)O)cc3[nH]ccc23)c1 [Compound 70a, 2-(2-((4-(3-(aminomethyl)phenyl)-1H-indol-6-yl)methoxy)phenyl)acetic acid] | < 1
NCc1cccc(-c2cc(COc3ccccc3C(=O)O)cc3ccoc23)c1 [Compound 293c, 2-((7-(3-(aminomethyl)phenyl)benzofuran-5-yl)methoxy)benzoic acid] | < 1
Cc1c(COc2ccccc2CC(=O)O)cc2ccoc2c1-c1cccc(CN)c1 [Compound 413m, 2-(2-((7-(3-(aminomethyl)phenyl)-6-methylbenzofuran-5-yl)methoxy)phenyl)acetic acid] | < 1
COCc1cc2cc(COc3cc(C)ccc3CC(=O)O)cc(-c3cccc(CN)c3)c2o1 [Compound 415e, 2-(2-((7-(3-(aminomethyl)phenyl)-2-(methoxymethyl)benzofuran-5-yl)methoxy)-4-methylphenyl)acetic acid] | < 1
CCOC(=O)Cc1ccccc1NC(=O)c1cc(-c2cccc(CN)c2)c2cn(CC3CC3)nc2c1 [Compound 11a, ethyl 2-(2-(4-(3-(aminomethyl)phenyl)-2-(cyclopropylmethyl)-2H-indazole-6-carboxamido)phenyl)acetate] | > 10
